Measurements published in patent US20200155487A1, “Treatment of obesity and its complications” (CymaBay Therapeutics, Inc., priority 2018, published 2020).

Legend:
[1] = test system: dyslipidemic overweight patients; settings: cited from earlier work; for reduction of alkaline phosphatase: control group 4%
DIO-NASH C57BL/6J mouse = assay: Diet-induced obese mouse model of NASH (DIO-NASH), 12 weeks dosing; assay type: in vivo; settings: SD in parentheses
From the text: The diet-induced obese mouse model of NASH (DIO-NASH) uses the C57BL/6J mouse fed a high fat diet that results in NAFLD/NASH. A protocol is described in Kristiansen et al., “Obese diet-induced mouse models of nonalcoholic steatohepatitis—tracking disease by liver biopsy”, World J. Hepatol., 8(16), 673-684 (2016). Male C57BL/6J mice were fed an atherogenic 40% high fat diet (AMLN diet, D09100301, Research Diet, US—40 kcal % fat (18% trans fat), 40 kcal % carbohydrate (20% fructose), 2% cholesterol) for 43 weeks before the start of the trial, to induce NAFLD/NASH. At week −3, the mice underwent a liver biopsy, which was scored for steatosis and fibrosis; mice with fibrosis stage <1 and steatosis score <2 were deselected prior to randomization. A stratified randomization into treatment groups was performed according to liver Collal quantification. […] At 12 weeks, analyses included body weight, plasma ALT, AST, triglycerides, and total cholesterol; liver triglycerides and total cholesterol; and NAS, fibrosis, Collal, galectin-3, and steatosis and fibrosis scores from a liver biopsy. Results are given in the table below: standard deviations are in parentheses: […]

obese subjects = assay: Example 2 clinical study, single agent seladelpar in obese subjects, 52 weeks; assay type: in vivo, human; settings: 10, 20, and 50 mg/day for 52 weeks
From the text: Subjects are permitted their usual other medications (e.g. antidiabetic medications such as metformin or […]) but not glitazones, PPAR agonists, OCA, or similar medications. […] The primary efficacy outcome is the change in body weight. Other outcome measures related to the complications of obesity include change in baseline in liver fat content at 12 weeks, as measured by magnetic resonance imaging-derived proton density fat fraction (MRI-PDFF), histological improvement in NASH and fibrosis, assessed by comparing liver biopsy samples at baseline and at 52 weeks after the start of dosing; MRI-PDFF at 26 and 52 weeks; and measurements of total cholesterol, HDL-C, LDL-C, VLDL-C, TGs, apoB, and liver transaminases. The subjects also maintain health diaries, which are reviewed at each visit.

[2] = test system: Alms1 mutant (foz/foz) mice; settings: mouse, in vivo; cited from earlier work
NAFLD/NASH = settings: in vivo; cited from earlier work
women and men = settings: human, in vivo; cited from earlier work
[3] = test system: patients with type 2 diabetes; settings: in SNAC carrier, 20 and 40 mg/day; cited from earlier work
[4] = compared to placebo, alone and with atorvastatin, 8 weeks

CC(C)c1c(C(=O)Nc2ccccc2)c(-c2ccccc2)c(-c2ccc(F)cc2)n1CC[C@@H](O)C[C@@H](O)CC(=O)O [ATV, reference compound]
increase of γ-glutamyl transpeptidase ([1]; 8 weeks, atorvastatin 20 mg): 2%
reduction of alkaline phosphatase ([1]; 8 weeks): 6%

CCO[C@H](COc1ccc(C(F)(F)F)cc1)CSc1ccc(OCC(=O)O)c(C)c1 [Seladelpar, (R)-2-(4-((2-ethoxy-3-(4-(trifluoromethyl)phenoxy)propyl)-sulfanyl)-2-methylphenoxy)acetic acid]
NAS post-treatment (DIO-NASH C57BL/6J mouse; after 12 weeks dosing): 3.9 (0.5)
Liver TC (DIO-NASH C57BL/6J mouse; at 12 weeks): 10 (3) mg/g liver
Liver TG (DIO-NASH C57BL/6J mouse; at 12 weeks): 75 (20) mg/g liver
Plasma TC (DIO-NASH C57BL/6J mouse; at 12 weeks): 257 (40) mg/dL
Plasma TG (DIO-NASH C57BL/6J mouse; at 12 weeks): 38 (20) mg/dL
NAS pre-treatment (DIO-NASH C57BL/6J mouse; baseline biopsy before dosing): 6.0 (0.8)
Sirius red stain (DIO-NASH C57BL/6J mouse; liver biopsy at 12 weeks): 2.4 (1.8) %
ALT (DIO-NASH C57BL/6J mouse; plasma, at 12 weeks): 107 (65) U/L
AST (DIO-NASH C57BL/6J mouse; plasma, at 12 weeks): 162 (59) U/L
improvement in obesity and complications (body weight, MRI-PDFF, liver biopsy, NAS score) (obese subjects): dose-related improvement
reduction of γ-glutamyl transpeptidase ([1]; 8 weeks, control group 3%): 24-28%
reduction of alkaline phosphatase ([1]; 8 weeks): 32-43%
reduction of apoB100 ([1]; compared to placebo, 50 or 100 mg alone or with atorvastatin 20 mg, 8 weeks, P<0.05): 20-38%
raise of HDL-C [1, 4]: 1-12%
reduction of LDL [1, 4]: 18-43%
reduction of free fatty acids [1, 4]: 16-28%
reduction of high-sensitivity C-reactive protein [1, 4]: 43-72%
reduction of non-HDL-C [1, 4]: 18-41%
reduction of triglycerides [1, 4]: 26-30%
depletion of small dense LDL particles ([1]; in vivo): 92%
reduction of the percentage of subjects meeting the criteria for metabolic syndrome ([1]; in vivo): > 2 fold
safety and tolerability ([1]; in vivo): safe and generally well-tolerated
NASH pathology (hepatic steatosis, inflammation, fibrosis) [2]: improves NASH pathology

CCCCCCCCCCC[C@@H](C[C@@H]1OC(=O)[C@H]1CCCCCC)OC(=O)[C@H](CC(C)C)NC=O [orlistat]
benefit in NAFLD/NASH compared to weight loss alone (NAFLD/NASH): no significant benefit

CCc1ccc(CCOc2ccc(CC3SC(=O)NC3=O)cc2)nc1 (stereo not shown) [pioglitazone]
associated risks (women and men): significantly increased risk of weight gain, edema, congestive heart failure, and osteoporotic fractures

semaglutide
efficacy of once/day oral dosing [3]: efficacious
